According to PubChem BioAssay (NCI):
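Growth conditions: 96-well plates. Treatment: test compound, 48 hours, 5 concentrations. Analysis: linear interpolation between bracketing concentrations; unreached endpoints set to highest concentration. At the GI50, growth is halved. The concentration for full growth arrest is given as TGI.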

How the values were obtained:
Experiment in all cases: NCI tumour cell line growth inhibition, 48 h
[1] = test system: CAKI-1 renal
[2] = test system: EKVX NSCLC
[3] = test system: HOP-92 NSCLC
[4] = test system: HT29 colon
[5] = test system: MOLT-4 leukemia
[6] = test system: NCI-H23 lung
[7] = test system: NCI-H522 lung
[8] = test system: PC-3 prostate
[9] = test system: T-47D breast
[10] = test system: UO-31 renal

Structure (SMILES) | GI50 [1] | TGI [1] | GI50 [2] | TGI [2] | GI50 [3] | TGI [3] | GI50 [4] | TGI [4] | GI50 [5] | TGI [5] | GI50 [6] | TGI [6] | GI50 [7] | TGI [7] | GI50 [8] | TGI [8] | GI50 [9] | TGI [9] | GI50 [10] | TGI [10]
O=C(Nc1cc(C(F)(F)F)ccc1F)Nc1n[nH]c2ccccc12 | > 100 µM | > 100 µM | > 100 µM | > 100 µM | > 100 µM | > 100 µM | > 100 µM | > 100 µM | > 100 µM | > 100 µM | > 100 µM | > 100 µM | > 100 µM | > 100 µM | > 100 µM | > 100 µM | 0.215 µM | > 100 µM | > 100 µM | > 100 µM
COc1cc(OC)c2c(=O)c(O)c(-c3ccc(OC)c(OC)c3)oc2c1 | – | > 31.4 µM | – | > 100 µM | – | 20.7 µM | – | > 100 µM | – | 9.61 µM | – | > 100 µM | – | > 31.6 µM | – | > 100 µM | – | 31.4 µM | – | > 100 µM
CC(ONC(=O)c1cc(C(F)(F)F)cc(C(F)(F)F)c1)C(=O)Nc1ccc(Cl)cc1 (stereo not given) | 20.3 µM | > 76.6 µM | 4.46 µM | > 63 µM | 2.77 µM | 7.21 µM | 5.92 µM | 27.2 µM | 2.65 µM | 22.3 µM | 3.55 µM | 10.6 µM | 4.14 µM | 22.4 µM | 3.63 µM | 18.4 µM | 3.78 µM | > 60.8 µM | 4.85 µM | 21.5 µM
C#C[C@]1(O)CC[C@H]2[C@@H]3CC=C4c5sc(N=C(N)N)nc5CC[C@]4(C)[C@H]3CC[C@@]21C | 0.615 µM | 1.82 µM | 1.25 µM | 2.85 µM | 0.842 µM | 2.37 µM | 0.361 µM | 1.69 µM | 0.297 µM | 1.01 µM | 1.26 µM | 2.92 µM | 1.63 µM | 3.67 µM | 0.475 µM | 1.8 µM | 1.19 µM | 3.16 µM | 0.307 µM | 0.931 µM
CC(C)=CCc1c(O)cc(/C=C/c2cc(O)c3c(c2)C[C@@H]2C(C)(C)[C@H](O)[C@H](O)C[C@@]2(C)O3)cc1O | 0.00267 µM | > 5.6 µM | 0.789 µM | 4.49 µM | 0.0104 µM | 2.6 µM | 0.373 µM | 3.54 µM | < 0.001 µM | 0.0148 µM | 1.51 µM | 7.68 µM | 0.363 µM | 2.86 µM | 0.345 µM | > 10 µM | 1.85 µM | > 9.39 µM | < 0.001 µM | 4.92 µM
O=C1Nc2ccccc2C1Cc1ccccc1 (stereo not given) | – | > 100 µM | – | > 100 µM | – | > 100 µM | – | > 100 µM | – | > 100 µM | – | > 100 µM | – | > 100 µM | – | > 100 µM | – | > 100 µM | – | > 100 µM
CCC[C@H](N[C@@H]1CCc2cc(F)cc(F)c2C1)C(=O)Nc1cn(C(C)(C)CNCC(C)(C)C)cn1 | 5.94 µM | 29 µM | 21 µM | > 100 µM | 1.47 µM | 11.1 µM | 11.7 µM | 30 µM | 8.03 µM | > 68.1 µM | 17.3 µM | > 89.9 µM | 15.7 µM | 56.1 µM | 7.63 µM | 79.2 µM | 16 µM | > 65.4 µM | 6.33 µM | 22.1 µM
CC(=O)OC1COC(S[As](C)C)C(OC(C)=O)C1OC(C)=O (stereo not given) | 0.041 µM | 0.74 µM | 2.07 µM | 17.1 µM | 0.0332 µM | 0.28 µM | 0.558 µM | > 100 µM | 0.0152 µM | 0.0672 µM | 0.322 µM | 4.53 µM | 0.0321 µM | 0.139 µM | 0.164 µM | 2.04 µM | 2.67 µM | 19.9 µM | 0.102 µM | 0.805 µM
C(=C1c2ccccc2-c2ccccc21)c1ccccn1 | 3.23 µM | 19.6 µM | 5.85 µM | 38.3 µM | 7.43 µM | 74.5 µM | 3.56 µM | 16.7 µM | 11.8 µM | > 100 µM | 10.3 µM | 96.7 µM | 11.1 µM | 51.1 µM | 22.7 µM | > 100 µM | 5.03 µM | 50.9 µM | 8.64 µM | 38.6 µM
COC(=O)CCC(=O)c1c(C)[nH]c(/C=C2\N=C(c3ccc[nH]3)C=C2OC)c1C | 0.869 µM | 2.95 µM | 1.1 µM | 2.94 µM | 0.486 µM | 1.55 µM | 0.0737 µM | 1.48 µM | 0.405 µM | 1.85 µM | 1.79 µM | 4.7 µM | 1.13 µM | 2.86 µM | 0.647 µM | 2.14 µM | 0.931 µM | 4.09 µM | 0.279 µM | 0.866 µM
COc1ccc2c(c1)c(C1(c3cn(C)c4ccc(OC)cc34)C(=O)Nc3ccc(F)cc31)cn2C | 2.06 µM | 45.3 µM | 3.05 µM | > 100 µM | 3.84 µM | 58.7 µM | 3.52 µM | 23 µM | 4.57 µM | 50.1 µM | 6.06 µM | > 100 µM | 2.67 µM | 7.75 µM | 3.88 µM | > 100 µM | 4.75 µM | > 100 µM | 2.27 µM | > 100 µM
COCCOC(=O)C1=C(C)NC2=C(C(=O)CC(c3ccccc3OC)C2)C1c1cccc(O)c1 (stereo not given) | 4.43 µM | 31.3 µM | 14.4 µM | > 100 µM | 1.04 µM | 15.4 µM | 5.38 µM | 25.3 µM | 22 µM | > 77.6 µM | 14.7 µM | 56.6 µM | 6.47 µM | 33.6 µM | 8.15 µM | > 95.2 µM | 5.99 µM | 54.3 µM | 3.62 µM | 45.8 µM
CCC(Sc1nnc2c3ccccc3n(CC)c2n1)C(=O)Nc1ccccc1OC (stereo not given) | 0.76 µM | 5.32 µM | 1.08 µM | > 30.1 µM | 65.5 µM | > 100 µM | > 100 µM | > 100 µM | 35 µM | > 100 µM | 3.41 µM | > 100 µM | > 100 µM | > 100 µM | 59.3 µM | > 100 µM | 7.74 µM | > 100 µM | 2.12 µM | 6.65 µM
COc1ccc(-c2n[nH]nc2-c2csc3ccccc23)cc1OC | 3.69 µM | 34.2 µM | 3.42 µM | > 100 µM | 0.922 µM | 6.69 µM | 2.78 µM | 10.6 µM | 3.05 µM | 27.7 µM | 3.93 µM | 27.9 µM | 0.601 µM | 2.81 µM | 3.08 µM | 35.4 µM | 2.83 µM | 32.6 µM | 2.78 µM | 20.8 µM
O=C1C=C(Nc2ccccc2C(=O)CC(=O)C(=O)Nc2cccc(C(F)(F)F)c2)c2ccccc2C1=O | – | 99.8 µM | – | 98.7 µM | – | > 94.3 µM | – | > 100 µM | – | > 57.9 µM | – | 30.5 µM | – | 79.2 µM | – | > 100 µM | – | > 100 µM | – | > 80.1 µM
O=C1OC(c2ccc(O)c(-c3ccccc3)c2)(c2ccc(O)c(-c3ccccc3)c2)c2c(Cl)c(Cl)c(Cl)c(Cl)c21 | – | > 100 µM | – | > 100 µM | – | > 100 µM | – | > 100 µM | – | > 100 µM | – | > 100 µM | – | > 100 µM | – | > 100 µM | – | > 100 µM | – | > 100 µM
O=C1/C(=C/c2ccccc2Cl)N=C(c2ccccc2)N1Cc1ccco1 | 94.3 µM | > 100 µM | 54 µM | > 100 µM | 51.9 µM | > 100 µM | 36.4 µM | > 100 µM | 13.3 µM | > 100 µM | 40.5 µM | > 100 µM | 26.2 µM | 66.7 µM | 39 µM | > 100 µM | 53.2 µM | > 100 µM | 55.4 µM | > 100 µM
COc1cccc(/C=N\Nc2ccc([N+](=O)[O-])cn2)c1O | 1.74 µM | 4.14 µM | 3.59 µM | 29.3 µM | 2.8 µM | 9.44 µM | 28.8 µM | > 100 µM | 3.43 µM | 16.9 µM | 2.92 µM | 14.9 µM | 3.34 µM | 18.4 µM | 14 µM | > 100 µM | 3.83 µM | 89.1 µM | 1.74 µM | 7.24 µM
CCCCCCCCCCCCCCCc1cc(O)ccc1N | 1.72 µM | 7.06 µM | > 50.6 µM | > 100 µM | 12.4 µM | 93.7 µM | > 100 µM | > 100 µM | 0.183 µM | > 24.8 µM | > 96.2 µM | > 100 µM | 0.127 µM | 0.452 µM | 0.463 µM | 10.6 µM | 0.132 µM | 1.76 µM | 0.685 µM | 9.36 µM
CC(=O)O[C@@H]1CO[C@H]2O[C@H]3[C@@H](C(C=O)=C[C@H](O)[C@@H]4C5=C(C(C)C)CC[C@]5(C)CC[C@@]34C)[C@@]2(O)C1=O | – | 0.486 µM | – | 1.28 µM | – | 0.554 µM | – | 0.471 µM | – | 0.28 µM | – | 0.893 µM | – | 0.24 µM | – | 0.368 µM | – | 0.378 µM | – | 0.598 µM
